From PubChem BioAssay (NCI)
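Exposure lasted 48 hours, with cells grown in 96-well plates and compounds tested at five concentrations. The concentration for 50% growth inhibition is given as GI50. At the TGI there is no net growth.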

Assays:
Test in all cases: inhibition of tumour cell growth, NCI panel, 48 h
SR leukemia = tested on: SR leukemia
NCI-H460 lung = tested on: NCI-H460 lung
UACC-257 melanoma = tested on: UACC-257 melanoma
786-0 renal = tested on: 786-0 renal
SK-OV-3 ovarian = tested on: SK-OV-3 ovarian
HCT-15 colon = tested on: HCT-15 colon
HCT-116 colon = tested on: HCT-116 colon
HT29 colon = tested on: HT29 colon
HOP-62 NSCLC = tested on: HOP-62 NSCLC
LOX IMVI melanoma = tested on: LOX IMVI melanoma

SMILES | TGI (SR leukemia) | TGI (NCI-H460 lung) | TGI (UACC-257 melanoma) | TGI (786-0 renal) | TGI (SK-OV-3 ovarian) | TGI (HCT-15 colon) | TGI (HCT-116 colon) | TGI (HT29 colon) | TGI (HOP-62 NSCLC) | GI50 (SR leukemia) | GI50 (NCI-H460 lung) | GI50 (UACC-257 melanoma) | GI50 (786-0 renal) | GI50 (HCT-15 colon) | GI50 (HCT-116 colon) | GI50 (HT29 colon) | GI50 (LOX IMVI melanoma) | TGI (LOX IMVI melanoma) | GI50 (SK-OV-3 ovarian) | GI50 (HOP-62 NSCLC)
OCCCCCNc1ccnc2cc(Cl)ccc12 | 40.8 µM | > 100 µM | > 100 µM | > 100 µM | > 100 µM | > 100 µM | > 100 µM | > 100 µM | > 100 µM |  |  |  |  |  |  |  |  |  |  | 
COc1c(N2CCN(CN3C(=O)C(=O)c4ccccc43)C(C)C2)c(F)cc2c(=O)c(C(=O)O)cn(C3CC3)c12 (centres undefined) | > 100 µM | > 100 µM | > 100 µM | > 100 µM |  | > 100 µM | > 100 µM | > 100 µM |  | 32.1 µM | 43.4 µM | > 100 µM | > 100 µM | 55.8 µM | 44.9 µM | 47.3 µM | 71.2 µM | > 100 µM |  | 
O=C1c2ccccc2-c2c1c1ccc([N+](=O)[O-])cc1c(=O)n2CCCn1ccnc1 |  | 7.98 µM | 1.83 µM | 0.894 µM | > 39.5 µM | 3.15 µM | 0.652 µM | 10.9 µM | 0.708 µM |  | < 0.0275 µM | 0.379 µM | 0.218 µM | 1.06 µM | 0.0763 µM | < 0.0418 µM | 0.152 µM | 0.33 µM | 9.63 µM | 0.173 µM
Cc1nc(-n2nc(-c3ccccc3)cc2-c2ccccc2)sc1C(=O)/C=C/c1ccc(Cl)cc1 |  | 76.5 µM | 49.1 µM | 27.4 µM | > 100 µM | > 100 µM |  | 29.6 µM | 34.4 µM |  |  |  |  |  |  |  |  | 27.9 µM |  | 
Cc1ccc2c(c1)-c1oc(=O)c(-c3cc4ccccc4oc3=O)cc1C(O)O2 (centres undefined) | 82.8 µM | > 100 µM | 92.6 µM | 39.7 µM |  | 48.8 µM | 33 µM | > 100 µM | 41.4 µM | 22.9 µM | 22.3 µM | 34 µM | 20.9 µM | 23.9 µM | 18 µM | 40.8 µM | 17.6 µM | 31.4 µM |  | 22.9 µM
[N-]=[N+]=NC1C2CC3CC(C2)CC1C3 (centres undefined) | > 100 µM | > 100 µM | > 100 µM | > 100 µM | > 100 µM |  | > 100 µM | > 100 µM | > 100 µM |  |  |  |  |  |  |  |  | > 100 µM |  | 
Fc1ccc2c(c1)cc1ccc3cccc4ccc2c1c34 | > 100 µM |  | > 100 µM | > 100 µM | > 100 µM |  | > 100 µM | > 100 µM | > 100 µM |  |  |  |  |  |  |  |  | > 100 µM |  | 
C#CCN(Cc1nc2cc(C(F)(F)F)ccc2nc1-c1ccccc1)c1ccc(F)cc1 |  | > 100 µM | 63 µM | 54 µM | > 100 µM | > 100 µM | > 100 µM | > 100 µM | > 100 µM |  | 27.8 µM | 18.7 µM | 20.4 µM | 29.5 µM | 20.8 µM | 34.9 µM | 30.5 µM | 97.8 µM | 33.4 µM | 34.7 µM
CCCCCN(CCCCC)C(=O)[C@H](CCC(=O)OCc1ccccc1)NC(=O)c1cc2ccccc2[nH]1 |  | > 100 µM | > 100 µM | > 100 µM | > 100 µM | > 100 µM | > 100 µM | > 100 µM | > 100 µM |  |  |  |  |  |  |  |  | > 100 µM |  | 
O=C(Nc1ccc(N2CCNCC2)cn1)c1[nH]ncc1Nc1ncnc2sccc12 |  | 3.57 µM | 36.7 µM | 3.23 µM | 25.7 µM | > 100 µM | 3.09 µM | 3.97 µM | 14.7 µM |  | 1.73 µM | 16.4 µM | 1.62 µM | 8.3 µM | 1.15 µM | 1.91 µM |  |  | 10.6 µM | 2.99 µM
C[C@@]1(O)CCC[C@H]1n1c(=O)c(C(F)F)cc2cnc(NC3CCN(S(C)(=O)=O)CC3)nc21 | > 100 µM | 11.9 µM | 22.8 µM | > 100 µM |  | 56.6 µM | > 100 µM | > 100 µM | > 100 µM | 1.96 µM | 0.109 µM | 2.31 µM | 1.9 µM | 1.74 µM | 1.05 µM | 1.27 µM | 1.28 µM | > 100 µM |  | 2.03 µM
COC(=O)c1ccc(/C=C/S(=O)(=O)c2ccccc2)cc1 |  | > 100 µM | > 100 µM | > 100 µM | > 100 µM | > 100 µM | > 100 µM | > 100 µM | > 100 µM |  |  |  |  |  |  |  |  | > 100 µM |  | 
Cc1nc2ccccc2c(/C=C/c2ccccc2)c1C(=O)/C=C/c1ccccc1 | > 100 µM | 4.88 µM |  | 3.02 µM | > 100 µM | 4.4 µM | 2.56 µM | 12 µM | 4.1 µM | 1.78 µM | 1.88 µM |  | 1.61 µM | 1.56 µM | 1.11 µM | 2.61 µM | 1.77 µM | 3.19 µM | 3.92 µM | 1.9 µM
CCN(CC)CCOc1ccc(Cc2ccccc2)cc1 |  | 62.1 µM | 63 µM | > 100 µM | > 100 µM | 53.9 µM | > 100 µM | 33.9 µM | > 100 µM |  | 22.9 µM | 22.5 µM | 27.6 µM | 15.1 µM | 34.8 µM | 12.3 µM | 15.2 µM | 33.3 µM | 44 µM | 32.4 µM
CN[C@H]1CC[C@]23C[C@]24CC[C@]2(C)[C@@H]([C@H](C)N(C)C)CC[C@@]2(C)[C@@H]4CC[C@H]3C1(C)C |  | 37.2 µM | 32.8 µM | 19.8 µM | 38.2 µM | 25.8 µM | 24 µM | 14.2 µM |  |  |  |  |  |  |  |  |  | 18.9 µM |  | 
CCOC(=O)NC(=O)c1cn(C2OC(COC(=O)CCCCCCCCC(=O)OCC3OC(n4cc(C(=O)NC(=O)OCC)c(=O)[nH]c4=O)C4OC(C)(C)OC34)C3OC(C)(C)OC32)c(=O)[nH]c1=O (centres undefined) | > 100 µM | > 100 µM | > 100 µM | > 100 µM |  | > 100 µM | > 100 µM | > 100 µM | > 100 µM |  |  |  |  |  |  |  |  | > 100 µM |  | 
